Assay results as given in patent publication US12448389B2, “BRM targeting compounds and associated methods of use” (Prelude Therapeutics Incorporated, priority 2020, dated 2025).

What was measured:
SMARCA2-HiBiT = target: T1, SMARCA2-HiBiT (Homo sapiens, UniProt P51531); assay: SMARCA2 HiBiT degradation assay in HeLa cells; assay type: cell-based; settings: 18 hours incubation; for DC50: read-out: HeLa_HiBit-SM2 DC50; for Dmax: HeLa, read-out: HeLa-HiBit-SM2 Dmax (%)
T1 construct: SMARCA2-HiBiT knock-in Hela monoclonal cell (CS302366); host or cells: HeLa monoclonal knock-in line (CRISPR HiBiT knock-in at the endogenous locus, heterozygous)
In short: (§1)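 HeLa monoclonal lines with heterozygous HiBiT knock-in were seeded at 2500 cells/well in EMEM with 10% FBS and treated with compound for 18 h at 37 °C. Remaining tagged protein was measured by Nano-Glo HiBiT lytic luminescence after 30–60 min at RT, and values came from curve fitting.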

SMARCA4-HiBiT = target: T2, SMARCA4-HiBiT (Homo sapiens, UniProt P51532); assay: SMARCA4 HiBiT degradation assay in HeLa cells; assay type: cell-based; settings: 18 hours incubation; for DC50: read-out: HeLa-HiBit-SM4 DC50; for Dmax: HeLa, read-out: HeLa-HiBit-SM4 Dmax (%)
T2 construct: SMARCA4-HiBiT knock-in Hela monoclonal cell (CS3023226); host or cells: HeLa monoclonal knock-in line (CRISPR HiBiT knock-in at the endogenous locus, heterozygous)
In short: as §1

T1 sequence (P51531 whole entry): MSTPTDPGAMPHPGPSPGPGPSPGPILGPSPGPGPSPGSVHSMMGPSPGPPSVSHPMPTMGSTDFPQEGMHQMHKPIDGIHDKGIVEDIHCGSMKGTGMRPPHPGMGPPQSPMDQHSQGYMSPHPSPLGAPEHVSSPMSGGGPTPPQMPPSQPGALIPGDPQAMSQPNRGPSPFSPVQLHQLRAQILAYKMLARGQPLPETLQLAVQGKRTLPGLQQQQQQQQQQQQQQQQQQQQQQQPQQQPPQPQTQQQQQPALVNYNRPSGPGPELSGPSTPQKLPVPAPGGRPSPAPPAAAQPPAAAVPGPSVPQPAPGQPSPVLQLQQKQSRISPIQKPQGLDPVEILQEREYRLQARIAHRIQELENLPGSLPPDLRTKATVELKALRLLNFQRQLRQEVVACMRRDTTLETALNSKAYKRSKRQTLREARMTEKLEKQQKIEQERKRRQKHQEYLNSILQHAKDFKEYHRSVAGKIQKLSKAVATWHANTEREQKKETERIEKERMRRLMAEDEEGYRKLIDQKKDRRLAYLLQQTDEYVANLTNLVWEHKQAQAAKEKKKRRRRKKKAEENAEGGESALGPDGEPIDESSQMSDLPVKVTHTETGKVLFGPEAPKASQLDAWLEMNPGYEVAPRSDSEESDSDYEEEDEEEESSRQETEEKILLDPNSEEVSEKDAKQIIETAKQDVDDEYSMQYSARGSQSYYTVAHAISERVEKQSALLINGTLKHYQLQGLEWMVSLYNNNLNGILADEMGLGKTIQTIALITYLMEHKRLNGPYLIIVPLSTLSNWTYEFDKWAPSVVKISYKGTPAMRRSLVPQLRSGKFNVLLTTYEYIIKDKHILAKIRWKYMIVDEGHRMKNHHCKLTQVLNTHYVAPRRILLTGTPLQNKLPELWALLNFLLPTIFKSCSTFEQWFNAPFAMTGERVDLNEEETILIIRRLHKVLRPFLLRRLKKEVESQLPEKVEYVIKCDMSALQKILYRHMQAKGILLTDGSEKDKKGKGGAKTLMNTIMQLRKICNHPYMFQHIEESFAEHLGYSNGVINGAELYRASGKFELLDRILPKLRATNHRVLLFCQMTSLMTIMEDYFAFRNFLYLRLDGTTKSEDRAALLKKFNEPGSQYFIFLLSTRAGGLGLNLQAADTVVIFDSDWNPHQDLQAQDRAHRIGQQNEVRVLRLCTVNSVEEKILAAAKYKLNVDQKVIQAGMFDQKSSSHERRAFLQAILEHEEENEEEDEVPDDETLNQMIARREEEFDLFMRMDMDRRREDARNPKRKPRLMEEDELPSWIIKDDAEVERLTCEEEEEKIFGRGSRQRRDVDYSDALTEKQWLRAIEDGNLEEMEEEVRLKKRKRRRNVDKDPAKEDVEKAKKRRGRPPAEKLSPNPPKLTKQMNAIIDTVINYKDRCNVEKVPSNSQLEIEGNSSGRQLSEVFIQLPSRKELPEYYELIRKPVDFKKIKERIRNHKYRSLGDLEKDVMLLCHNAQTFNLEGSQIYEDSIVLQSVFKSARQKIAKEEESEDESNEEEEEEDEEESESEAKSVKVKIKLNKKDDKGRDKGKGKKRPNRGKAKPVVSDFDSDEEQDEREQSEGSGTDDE
T2 sequence (P51532 whole entry): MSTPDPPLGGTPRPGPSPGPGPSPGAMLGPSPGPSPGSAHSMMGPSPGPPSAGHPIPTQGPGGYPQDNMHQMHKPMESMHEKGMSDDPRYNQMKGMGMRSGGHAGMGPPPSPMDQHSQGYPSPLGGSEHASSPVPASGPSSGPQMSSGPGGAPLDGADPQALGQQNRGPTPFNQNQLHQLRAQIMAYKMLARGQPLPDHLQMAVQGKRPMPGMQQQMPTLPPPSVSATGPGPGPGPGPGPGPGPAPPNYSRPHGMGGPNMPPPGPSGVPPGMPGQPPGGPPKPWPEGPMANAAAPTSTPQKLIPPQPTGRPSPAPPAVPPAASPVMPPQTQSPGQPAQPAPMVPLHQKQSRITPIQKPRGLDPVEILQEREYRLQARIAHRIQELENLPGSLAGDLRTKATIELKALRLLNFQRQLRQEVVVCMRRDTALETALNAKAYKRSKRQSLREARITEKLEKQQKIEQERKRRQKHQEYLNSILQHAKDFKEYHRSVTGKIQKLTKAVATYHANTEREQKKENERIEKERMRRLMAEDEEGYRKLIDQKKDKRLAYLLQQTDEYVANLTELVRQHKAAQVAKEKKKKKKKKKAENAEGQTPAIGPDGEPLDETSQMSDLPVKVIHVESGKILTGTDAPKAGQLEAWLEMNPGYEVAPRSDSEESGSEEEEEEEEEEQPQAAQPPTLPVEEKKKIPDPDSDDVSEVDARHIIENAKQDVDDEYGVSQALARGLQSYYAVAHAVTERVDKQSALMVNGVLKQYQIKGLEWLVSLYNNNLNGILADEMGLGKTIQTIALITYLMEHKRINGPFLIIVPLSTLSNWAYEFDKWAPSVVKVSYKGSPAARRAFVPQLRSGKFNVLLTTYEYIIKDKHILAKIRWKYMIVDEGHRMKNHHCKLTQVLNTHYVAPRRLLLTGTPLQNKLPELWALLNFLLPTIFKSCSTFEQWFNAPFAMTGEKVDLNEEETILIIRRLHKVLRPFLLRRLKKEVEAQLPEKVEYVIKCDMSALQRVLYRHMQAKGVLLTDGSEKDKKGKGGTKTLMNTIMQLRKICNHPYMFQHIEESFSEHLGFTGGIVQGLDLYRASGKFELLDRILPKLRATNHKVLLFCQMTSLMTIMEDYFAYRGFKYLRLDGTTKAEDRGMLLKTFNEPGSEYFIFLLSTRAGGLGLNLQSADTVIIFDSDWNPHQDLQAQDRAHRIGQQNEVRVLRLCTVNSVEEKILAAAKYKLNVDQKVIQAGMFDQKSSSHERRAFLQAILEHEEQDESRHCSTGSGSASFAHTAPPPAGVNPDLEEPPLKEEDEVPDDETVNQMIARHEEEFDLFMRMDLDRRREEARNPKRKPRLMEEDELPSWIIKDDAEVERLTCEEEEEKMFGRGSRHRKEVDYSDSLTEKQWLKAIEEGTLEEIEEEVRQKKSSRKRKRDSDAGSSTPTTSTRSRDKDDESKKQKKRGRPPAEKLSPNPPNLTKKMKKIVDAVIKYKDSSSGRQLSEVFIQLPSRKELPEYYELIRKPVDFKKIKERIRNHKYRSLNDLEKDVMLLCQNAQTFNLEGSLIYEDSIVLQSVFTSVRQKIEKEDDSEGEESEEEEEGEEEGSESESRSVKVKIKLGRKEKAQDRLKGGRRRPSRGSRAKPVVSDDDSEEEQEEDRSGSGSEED

Row | DC50 (SMARCA2-HiBiT) [nM] | Dmax (SMARCA2-HiBiT) [%] | DC50 (SMARCA4-HiBiT) [nM] | Dmax (SMARCA4-HiBiT) [%] | SMILES
1 | < 10 | 75 to 85 | 10 to 100 | 75 to 85 | CC1CC(C(=O)N2CCN3c4cc(-c5ccccc5O)nnc4NC[C@H]3C2)CCN1CC1CCN(c2ccc3c(c2)C(=O)N(C2CCC(=O)NC2=O)C3)CC1 (stereo partly drawn) [Example 265, 3-(6-(4-((4-((S)-2-(2-hydroxyphenyl)-6,6a,7,8,9,10-hexahydro-5H-pyrazino[1′,2′:4,5]pyrazino[2,3-c]pyridazine-8-carbonyl)-2-methylpiperidin-1-yl)methyl)piperidin-1-yl)-1-oxoisoindolin-2-yl)piperidine-2,6-dione]
2 | < 10 | > 85 | < 10 | 75 to 85 | O=C1CCC(N2C(=O)c3ccc(N4CCC(CN5CCC(CN6CCN7c8cc(-c9ccccc9O)nnc8NC[C@H]7C6)CC5CO)CC4)cc3C2=O)C(=O)N1 (stereo partly drawn) [Example 236, 2-(2,6-dioxopiperidin-3-yl)-5-(4-((2-(hydroxymethyl)-4-(((S)-2-(2-hydroxyphenyl)-5,6,6a,7,9,10-hexahydro-8H-pyrazino[1′,2′:4,5]pyrazino[2,3-c]pyridazin-8-yl)methyl)piperidin-1-yl)methyl)piperidin-1-yl) isoindoline-1,3-dione]
3 | < 10 | > 85 | < 10 | > 85 | CC(CN1CCN2c3cc(-c4ccccc4O)nnc3NC[C@H]2C1)C1CCN(CC2CCN(c3ccc4c(c3)C(=O)N(C3CCC(=O)NC3=O)C4=O)CC2)CC1 (stereo partly drawn) [Example 249, 2-(2,6-dioxopiperidin-3-yl)-5-(4-((4-(1-((S)-2-(2-hydroxyphenyl)-5,6,6a,7,9,10-hexahydro-8H-pyrazino[1′,2′:4,5]pyrazino[2,3-c]pyridazin-8-yl)propan-2-yl)piperidin-1-yl)methyl)piperidin-1-yl)isoindoline-1,3-dione]
4 | < 10 | > 85 | < 10 | > 85 | O=C1CCC(N2C(=O)c3ccc(C4CCN(C5CCN(CCN6CCN7c8cc(-c9ccccc9O)nnc8NC[C@H]7C6)C5)CC4)cc3C2=O)C(=O)N1 (stereo partly drawn) [Example 243, 2-(2,6-dioxopiperidin-3-yl)-5-(1-(1-(2-((S)-2-(2-hydroxyphenyl)-5,6,6a,7,9,10-hexahydro-8H-pyrazino[1′,2′:4,5]pyrazino[2,3-c]pyridazin-8-yl)ethyl)pyrrolidin-3-yl)piperidin-4-yl)isoindoline-1,3-dione]

The next lines start with the compound.

Row | SMILES | DC50 (SMARCA2-HiBiT) [nM] | Dmax (SMARCA2-HiBiT) [%] | DC50 (SMARCA4-HiBiT) [nM] | Dmax (SMARCA4-HiBiT) [%]
5 | O=C1CCC(N2C(=O)c3ccc(N4CCC(CN5CCCC(CN6CCN7c8cc(-c9ccccc9O)nnc8NC[C@H]7C6)C5)CC4)cc3C2=O)C(=O)N1 (stereo partly drawn) [Example 35, 2-(2,6-dioxopiperidin-3-yl)-5-(4-((3-(((S)-2-(2-hydroxyphenyl)-5,6,6a,7,9,10-hexahydro-8H-pyrazino[1′,2′:4,5]pyrazino[2,3-c]pyridazin-8-yl)methyl)piperidin-1-yl)methyl)piperidin-1-yl)isoindoline-1,3-dione] | < 10 | 75 to 85 | < 10 | 50 to 75
6 | O=C1CCC(N2C(=O)c3cccc(N4CCC(OCCN5CCC(N6CCN7c8cc(-c9ccccc9O)nnc8NC[C@H]7C6)CC5)CC4)c3C2=O)C(=O)N1 (stereo partly drawn) [Example 67, 2-(2,6-dioxopiperidin-3-yl)-4-(4-(2-(4-((S)-2-(2-hydroxyphenyl)-5,6,6a,7,9,10-hexahydro-8H-pyrazino[1′,2′:4,5]pyrazino[2,3-c]pyridazin-8-yl)piperidin-1-yl)ethoxy)piperidin-1-yl)isoindoline-1,3-dione] | < 10 | 50 to 75 | < 10 | 50 to 75
7 | CC1CN(CC2CCN(c3ccc4c(c3)C(=O)N(C3CCC(=O)NC3=O)C4)CC2)CCN1C(=O)N1CCN2c3cc(-c4ccccc4O)nnc3NC[C@H]2C1 (stereo partly drawn) [Example 104, 3-(6-(4-((4-((S)-2-(2-hydroxyphenyl)-6,6a,7,8,9,10-hexahydro-5H-pyrazino[1′,2′:4,5]pyrazino[2,3-c]pyridazine-8-carbonyl)-3-methylpiperazin-1-yl)methyl)piperidin-1-yl)-1-oxoisoindolin-2-yl)piperidine-2,6-dione] | < 10 | > 85 | < 10 | 75 to 85
8 | O=C1CCC(N2C(=O)c3ccc(N4CCN(C(=O)OCCN5CCC(N6CCN7c8cc(-c9ccccc9O)nnc8NC[C@H]7C6)CC5)CC4)cc3C2=O)C(=O)N1 (stereo partly drawn) [Example 223, 2-(4-((S)-2-(2-hydroxyphenyl)-5,6,6a,7,9,10-hexahydro-8H-pyrazino[1′,2′:4,5]pyrazino[2,3-c]pyridazin-8-yl)piperidin-1-yl)ethyl 4-(2-(2,6-dioxopiperidin-3-yl)-1,3-dioxoisoindolin-5-yl)piperazine-1-carboxylate] | < 10 | 75 to 85 | < 10 | 75 to 85
9 | O=C1CCC(N2C(=O)c3ccc(N4CCC(CN5CCC(CN6CCN7c8cc(-c9ccccc9O)nnc8NC[C@H]7C6)C5)CC4)cc3C2=O)C(=O)N1 (stereo partly drawn) [Example 33, 2-(2,6-dioxopiperidin-3-yl)-5-(4-((3-(((S)-2-(2-hydroxyphenyl)-5,6,6a,7,9,10-hexahydro-8H-pyrazino[1′,2′:4,5]pyrazino[2,3-c]pyridazin-8-yl)methyl)pyrrolidin-1-yl)methyl)piperidin-1-yl)isoindoline-1,3-dione] | < 10 | > 85 | < 10 | 75 to 85
10 | N#CC1(CN2CCC(CN3CCN4c5cc(-c6ccccc6O)nnc5NC[C@H]4C3)CC2)CCN(c2ccc3c(c2)C(=O)N(C2CCC(=O)NC2=O)C3=O)CC1 (stereo partly drawn) [Example 179, 1-[2-(2,6-dioxopiperidin-3-yl)-1,3-dioxoisoindol-5-y]-4-[[4-[[(10S)-4-(2-hydroxyphenyl)-1,5,6,8,12-pentazatricyclo[8.4.0.02,7]tetradeca-2,4,6-trien-12-yl]methyl]piperidin-1-yl]methyl]piperidine-4-carbonitrile] | < 10 | 50 to 75 | < 10 | 50 to 75
11 | C[C@@H](CN1CCC(N2CCN3c4cc(-c5ccccc5O)nnc4NC[C@H]3C2)CC1)Nc1cccc2c1C(=O)N(C1CCC(=O)NC1=O)C2=O (stereo partly drawn) [Example 71, 2-(2,6-dioxopiperidin-3-yl)-4-(((S)-1-(4-((S)-2-(2-hydroxyphenyl)-5,6,6a,7,9,10-hexahydro-8H-pyrazino[1′,2′:4,5]pyrazino[2,3-c]pyridazin-8-yl)piperidin-1-yl)propan-2-yl)ammo)isoindoline-1,3-dione] | < 10 | 75 to 85 | < 10 | 75 to 85
12 | C[C@@H]1CN(CC2CCN(c3ccc4c(c3)C(=O)N(C3CCC(=O)NC3=O)C4)CC2)CCN1C(=O)N1CCN2c3cc(-c4ccccc4O)nnc3NC[C@H]2C1 (stereo partly drawn) [Example 114, 3-(6-(4-(((R)-4-((S)-2-(2-hydroxyphenyl)-6,6a,7,8,9,10-hexahydro-5H-pyrazino[1′,2′:4,5]pyrazino[2,3-c]pyridazine-8-carbonyl)-3-methylpiperazin-1-yl)methyl)piperidin-1-yl)-1-oxoisoindolin-2-yl)piperidine-2,6-dione] | < 10 | > 85 | < 10 | 75 to 85
